In ChEMBL document CHEMBL1148032, “Hexaprenoid hydroquinones, novel inhibitors of the reverse transcriptase of human immunodeficiency virus type 1” (J Nat Prod, 1993):

Legend:
[1] = molecular target: Human immunodeficiency virus type 1 reverse transcriptase (Human immunodeficiency virus 1) (UniProt Q72547); assay: (§1) Inhibition of DNA dependent DNA polymerase activity of HIV1 BH10 recombinant reverse transcriptase p66/p51 assessed as residual enzyme activity
[2] = molecular target: T1, Human immunodeficiency virus type 1 reverse transcriptase (Human immunodeficiency virus 1, UniProt Q72547); assay: as §1
[3] = molecular target: Human immunodeficiency virus type 1 reverse transcriptase (Human immunodeficiency virus 1) (UniProt Q72547); assay: (§2) Inhibition of RNA dependent DNA polymerase activity of HIV1 BH10 recombinant reverse transcriptase p66/p51 assessed as residual enzyme activity by poly(rA)n.oligo(dT)12-18-directed incorporation of [3H]dTTP
[4] = molecular target: T1, Human immunodeficiency virus type 1 reverse transcriptase; assay: as §2
[5] = molecular target: T1, Human immunodeficiency virus type 1 reverse transcriptase; assay: Inhibition of RNase H activity of HIV1 BH10 recombinant reverse transcriptase p66/p51 assessed as residual enzyme activity […]

| Inhibition [1] [µM] | IC50 [2] [µM] | Inhibition [3] [µM] | IC50 [4] [µM] | IC50 [5] [µM] | SMILES |
| --- | --- | --- | --- | --- | --- |
| 54.5 | 4.5 | 28.6 | 13.2 | > 250 | CC1(C)CCC[C@]2(C)OC3CC[C@](C)(C4CC[C@]5(C)C4CC[C@]4(C)C6=C(CC54)C(=O)C=CC6=O)[C@]3(C)CCC12 (stereo not given in full) |
| 44.4 | 4.2 | 11.1 | 2.8 | > 250 | C[C@@H]1CC=C2[C@@H](CCC[C@@]2(C)CC[C@@]2(C)C3=CCCC(C)(C)[C@H]3CC[C@@H]2C)[C@]1(C)Cc1cc(O)ccc1O |
| 5 | 0.8 | 9.3 | 3.3 | > 250 | CC1=C(Cc2cc(OS(=O)(=O)O)ccc2OS(=O)(=O)O)[C@]2(C)CCC[C@@](C)(CC[C@@]3(O)[C@H](C)CC[C@@H]4OC(C)(C)CCC[C@@]43C)[C@H]2CC1 [SHAAGROCKOL C] |
| 40 | 6.7 | 21.2 | 8.5 | > 250 | CC(=O)CC[C@@H]1[C@](C)(CC[C@@]2(O)[C@H](C)CC[C@@H]3OC(C)(C)CCC[C@@]32C)CCC[C@@]1(C)C(=O)Cc1cc(OS(=O)(=O)O)ccc1OS(=O)(=O)O [SHAAGROCKOL B] |
| 14.7 | 1.4 | 18.1 | 2.5 | > 250 | CC1=C(Cc2cc(O)ccc2O)[C@]2(C)CCC[C@@](C)(CC[C@@]3(O)[C@H](C)CC[C@@H]4OC(C)(C)CCC[C@@]43C)[C@H]2CC1 |

Further lines, the molecule ahead of its results:

| SMILES | Inhibition [1] [µM] | IC50 [2] [µM] | Inhibition [3] [µM] | IC50 [4] [µM] | IC50 [5] [µM] |
| --- | --- | --- | --- | --- | --- |
| CC1(C)CCC[C@]2(C)OC3CC[C@](C)(C4CC[C@]5(C)C4CC[C@]4(C)c6c(OS(=O)(=O)O)ccc(OS(=O)(=O)O)c6CC54)[C@]3(C)CCC12 (stereo not given in full) [TOXICOL A] | 5.2 | 2.7 | 6.5 | 3.1 | > 250 |
| CC1(C)CCC[C@]2(C)OC3CC[C@](C)(C4CC[C@]5(C)C4CC[C@]4(C)c6c(O)ccc(O)c6CC54)[C@]3(C)CCC12 (stereo not given in full) [TOXICOL B] | 56.2 | 8.2 | 11.1 | 3.7 | > 250 |
| C[C@@H]1CC=C2[C@@H](CCC[C@@]2(C)CC[C@@]2(C)C3=CCCC(C)(C)[C@H]3CC[C@@H]2C)[C@]1(C)Cc1cc(OS(=O)(=O)O)ccc1OS(=O)(=O)O [TOXIUSOL SODIUM] | 41.6 | 6.6 | 4.6 | 1.5 | > 250 |
